Measurements as given in US20230416330A1, “Optimized GIP Peptide Analogues” (Antag Therapeutics ApS, priority 2019, published 2023).
Starred links: 1 amine or outer side, 2 acyl side, 3 side chain; linkers in the order of their positions; H or OH if unused. Non-standard residues stand in square brackets, D forms with d. Residues, ends and D or L forms follow the SMILES beside them. Groups on a side chain read outwards from the residue. *: point of attachment. C18 diacid = O=C(O)CCCCCCCCCCCCCCCCC(=O)*; C16 diacid = O=C(O)CCCCCCCCCCCCCCC(=O)*; γGlu = O=C(O)[C@H](CCC(=O)[*:2])N[*:1]; Glutaryl = O=C(CCCC(=O)[*:2])[*:1]; Palmitoyl = CCCCCCCCCCCCCCCC(=O)*; AEEA = NCCOCCOCC(=O)O; Aib = CC(C)(N)C(=O)O

Assays:
[1] = Solubility by visual inspection of peptide solutions; type: physicochemical; settings: TFA
Experimental: (§1) Peptides were either dissolved in sodium phosphate buffer (50 mM, pH 7.4, filtered) or dissolved in ultrapure (MilliQ) water (adjusted to pH 7.4 with NaOH, filtered) (see Table 3). All peptide samples were prepared to a concentration of 1, 5, 7.5 or 15 mg/ml. All samples, with the exception of reference peptides GIP(3-30), AT158, and AT482 dissolved readily and produced clear and colorless solutions with gentle mixing. Peptide samples were subsequently filtered through 0.22 μm nylon filters (Q-Max® RR syringe filter, 13 mm, Frisenette, DK) to produce particle-free solutions. All samples were added to a 96-well plate reader for the ThT assay at t=0.
Clear visual appearance may be taken as an indicator of the immediate solubility of the peptide. […] Thus, A13Aib and/or N24E substitutions appear to increase solubility.

[2] = Physical stability: fibril formation in Thioflavin T (ThT) assay with agitation; type: physicochemical; settings: for Avr lag time (h) / Avr lag time: TFA, 25° C., agitation
Experimental: Continuous measurement of the fluorescence emission at 486 nm can be used as a measure of fibrillation behavior of peptides and proteins. The time until onset of fibrillation or fibrillation lag time is estimated here by defining the lag time (Tlag) as the point in time where the signal relative to the pre-transition baseline has reached 10% of the post-transition baseline.
50 mM sodium phosphate buffer for dissolving some samples was prepared in ultrapure water (Milli-Q® Reference A+ System, Merck) with a resistivity of 18.2 MΩ·cm. The buffer was adjusted to pH 7.4 and filtered.
The ultrapure water (MilliQ) for dissolving some samples was adjusted to pH 7.4 with NaOH and filtered prior to sample preparation.
as §1
For each sample, […] ThT (1 mM) was added to 1.2 mL peptide solution. From this sample mixture, an amount of 200 uL/well was pipetted into four or five wells (n=4 or 5). Blank samples (buffer+ThT) were also included. One 3 mm silica bead was added to each well containing samples and the plate was subjected to orbital rotation at 300 rpm to agitate and stress the samples. The temperature was kept at 25° C. throughout the measurement.

Compound | Visual appearance ([1]; 1 mg/ml, Phosphate (7.4)) | Avr lag time (h) ([2]; 1 mg/ml, Phosphate (7.4)) | Visual appearance ([1]; 5 mg/ml, MilliQ) | Visual appearance ([1]; 5 mg/ml, Phosphate) | Avr lag time (h) ([2]; 5 mg/ml, MilliQ) | Avr lag time (h) ([2]; 5 mg/ml, Phosphate) | Fibril formation (FIG. 1) ([2]; in phosphate buffer, about 94 h, orbital rotation) | Avr lag time ([2]; 1 mg/ml, Phosphate (7.4))
CC[C@H](C)[C@H](NC(=O)[C@H](CO)NC(=O)[C@H](Cc1ccc(O)cc1)NC(=O)[C@H](CC(=O)O)NC(=O)[C@H](CO)NC(=O)[C@@H](NC(=O)[C@H](Cc1ccccc1)NC(=O)[C@@H](NC(=O)CNC(=O)[C@@H](N)CCC(=O)O)[C@@H](C)O)[C@@H](C)CC)C(=O)N[C@@H](C)C(=O)N[C@@H](CCSC)C(=O)N[C@@H](CC(=O)O)C(=O)N[C@@H](CCCCN)C(=O)N[C@H](C(=O)N[C@@H](Cc1c[nH]cn1)C(=O)N[C@@H](CCC(N)=O)C(=O)N[C@@H](CCC(N)=O)C(=O)N[C@@H](CC(=O)O)C(=O)N[C@@H](Cc1ccccc1)C(=O)N[C@H](C(=O)N[C@@H](CCC(=O)O)C(=O)N[C@@H](Cc1c[nH]c2ccccc12)C(=O)N[C@@H](CC(C)C)C(=O)N[C@@H](CC(C)C)C(=O)N[C@@H](C)C(=O)N[C@@H](CCC(N)=O)C(=O)N[C@@H](CCCCN)C(=O)N1CCC[C@H]1C(=O)N[C@@H](CO)C(=O)N[C@@H](CO)C(=O)NCC(=O)N[C@@H](C)C(=O)N1CCC[C@H]1C(=O)N1CCC[C@H]1C(=O)N1CCC[C@H]1C(=O)N[C@@H](CO)C(=O)N[C@@H](CCCCNC(=O)CCCCCCCCCCCCCCC(=O)O)C(=O)O)C(C)C)[C@@H](C)CC [AT744] (H-EGTFISDYSIAMDKIHQQDFVEWLLAQKPSSGAPPPSK(C16 diacid)-OH; N-terminus assumed) | Clear | fnd (Fnd = fibrils not detected within experiment time (96 hours) with agitation.) | – | – | – | – | – | –
CC[C@H](C)[C@H](NC(=O)[C@H](CCCCN)NC(=O)[C@H](CC(=O)O)NC(=O)[C@H](CCSC)NC(=O)C(C)(C)NC(=O)[C@@H](NC(=O)[C@H](CO)NC(=O)[C@H](Cc1ccc(O)cc1)NC(=O)[C@H](CC(=O)O)NC(=O)[C@H](CO)NC(=O)[C@@H](NC(=O)[C@H](Cc1ccccc1)NC(=O)[C@@H](NC(=O)CNC(=O)CCCC(=O)O)[C@@H](C)O)[C@@H](C)CC)[C@@H](C)CC)C(=O)N[C@@H](CCCCNC(=O)CCCCCCCCCCCCCCC(=O)O)C(=O)N[C@@H](CCC(N)=O)C(=O)N[C@@H](CCC(N)=O)C(=O)N[C@@H](CC(=O)O)C(=O)N[C@@H](Cc1ccccc1)C(=O)N[C@H](C(=O)N[C@@H](CC(N)=O)C(=O)N[C@@H](Cc1c[nH]c2ccccc12)C(=O)N[C@@H](CC(C)C)C(=O)N[C@@H](CC(C)C)C(=O)N[C@@H](C)C(=O)N[C@@H](CCC(N)=O)C(=O)N[C@@H](CCCCN)C(=O)N1CCC[C@H]1C(=O)N[C@@H](CO)C(=O)N[C@@H](CO)C(=O)NCC(=O)N[C@@H](C)C(=O)N1CCC[C@H]1C(=O)N1CCC[C@H]1C(=O)N1CCC[C@H]1C(=O)N[C@@H](CO)C(=O)O)C(C)C [AT763] (Glutaryl-GTFISDYSI[Aib]MDKIK(C16 diacid)QQDFVNWLLAQKPSSGAPPPS-OH) | Clear | fnd (Fnd = fibrils not detected within experiment time (96 hours) with agitation.) | Clear | Clear | fnd (Fnd = fibrils not detected within experiment time (96 hours) with agitation.) | fnd (Fnd = fibrils not detected within experiment time (96 hours) with agitation.) | does not form fibrils | –
CC[C@H](C)[C@H](NC(=O)[C@H](CCCCN)NC(=O)[C@H](CCC(=O)O)NC(=O)[C@H](CC(C)C)NC(=O)C(C)(C)NC(=O)[C@@H](NC(=O)[C@H](CO)NC(=O)[C@H](Cc1ccc(O)cc1)NC(=O)[C@H](CCC(=O)O)NC(=O)[C@H](CO)NC(=O)[C@@H](NC(=O)[C@H](Cc1ccccc1)NC(=O)[C@@H](NC(=O)CNC(=O)[C@@H](N)CCC(=O)O)[C@@H](C)O)[C@@H](C)CC)[C@@H](C)CC)C(=O)N[C@@H](CCCCNC(=O)[C@H](C)NC(=O)[C@H](CCC(=O)O)NC(=O)[C@H](CC(C)C)NC(=O)[C@H](C)NC(=O)CCCCCCCCCCCCCCC(=O)O)C(=O)N[C@@H](CCC(N)=O)C(=O)N[C@@H](CCC(N)=O)C(=O)N[C@@H](CCC(=O)O)C(=O)N[C@@H](Cc1ccccc1)C(=O)N[C@H](C(=O)N[C@@H](CCC(=O)O)C(=O)N[C@@H](Cc1c[nH]c2ccccc12)C(=O)N[C@@H](CC(C)C)C(=O)N[C@@H](CC(C)C)C(=O)N[C@@H](C)C(=O)N[C@@H](CCC(N)=O)C(=O)N[C@@H](CCCCN)C(=O)N1CCC[C@H]1C(=O)N[C@@H](CO)C(=O)N[C@@H](CO)C(=O)NCC(=O)N[C@@H](C)C(=O)N1CCC[C@H]1C(=O)N1CCC[C@H]1C(=O)N1CCC[C@H]1C(=O)N[C@@H](CO)C(=O)O)C(C)C [AT725] (H-EGTFISEYSI[Aib]LEKIK([Ala-Glu-Leu-Ala-C16 diacid])QQEFVEWLLAQKPSSGAPPPS-OH; N-terminus assumed) | Clear | fnd (Fnd = fibrils not detected within experiment time (96 hours) with agitation.) | – | – | – | – | – | –
CC[C@H](C)[C@H](NC(=O)[C@H](C)NC(=O)[C@H](CC(=O)O)NC(=O)[C@H](CCSC)NC(=O)[C@H](C)NC(=O)[C@@H](NC(=O)[C@H](CO)NC(=O)[C@H](Cc1ccc(O)cc1)NC(=O)[C@H](CC(=O)O)NC(=O)[C@H](CO)NC(=O)[C@@H](NC(=O)[C@H](Cc1ccccc1)NC(=O)[C@@H](NC(=O)CNC(=O)[C@@H](N)CCC(=O)O)[C@@H](C)O)[C@@H](C)CC)[C@@H](C)CC)C(=O)N[C@@H](CCCCNC(=O)CCCCCCCCCCCCCCC(=O)O)C(=O)N[C@@H](CCC(N)=O)C(=O)N[C@@H](CCC(N)=O)C(=O)N[C@@H](CC(=O)O)C(=O)N[C@@H](Cc1ccccc1)C(=O)N[C@H](C(=O)N[C@@H](CCC(=O)O)C(=O)N[C@@H](Cc1c[nH]c2ccccc12)C(=O)N[C@@H](CC(C)C)C(=O)N[C@@H](CC(C)C)C(=O)N[C@@H](C)C(=O)N[C@@H](CCC(N)=O)C(=O)N[C@@H](CCCCN)C(=O)N1CCC[C@H]1C(=O)N[C@@H](CO)C(=O)N[C@@H](CO)C(=O)NCC(=O)N[C@@H](C)C(=O)N1CCC[C@H]1C(=O)N1CCC[C@H]1C(=O)N1CCC[C@H]1C(=O)N[C@@H](CO)C(=O)O)C(C)C [AT748] (H-EGTFISDYSIAMDAIK(C16 diacid)QQDFVEWLLAQKPSSGAPPPS-OH; N-terminus assumed) | Clear | – | – | – | – | – | – | <24 h
CC[C@H](C)[C@H](NC(=O)[C@H](CCCCN)NC(=O)[C@H](CCC(=O)O)NC(=O)[C@H](CC(C)C)NC(=O)C(C)(C)NC(=O)[C@@H](NC(=O)[C@H](CO)NC(=O)[C@H](Cc1ccc(O)cc1)NC(=O)[C@H](CCC(=O)O)NC(=O)[C@H](CO)NC(=O)[C@@H](NC(=O)[C@H](Cc1ccccc1)NC(=O)[C@@H](NC(=O)CNC(=O)[C@@H](N)CCC(=O)O)[C@@H](C)O)[C@@H](C)CC)[C@@H](C)CC)C(=O)N[C@@H](CCCCNC(=O)COCCOCCNC(=O)COCCOCCNC(=O)CC[C@H](NC(=O)CCCCCCCCCCCCCCCCC(=O)O)C(=O)O)C(=O)N[C@@H](CCC(N)=O)C(=O)N[C@@H](CCC(N)=O)C(=O)N[C@@H](CCC(=O)O)C(=O)N[C@@H](Cc1ccccc1)C(=O)N[C@H](C(=O)N[C@@H](CCC(=O)O)C(=O)N[C@@H](Cc1c[nH]c2ccccc12)C(=O)N[C@@H](CC(C)C)C(=O)N[C@@H](CC(C)C)C(=O)N[C@@H](C)C(=O)N[C@@H](CCC(N)=O)C(=O)N[C@@H](CCCCN)C(=O)N1CCC[C@H]1C(=O)N[C@@H](CO)C(=O)N[C@@H](CO)C(=O)NCC(=O)N[C@@H](C)C(=O)N1CCC[C@H]1C(=O)N1CCC[C@H]1C(=O)N1CCC[C@H]1C(=O)N[C@@H](CO)C(N)=O)C(C)C [AT714] (H-EGTFISEYSI[Aib]LEKIK([AEEA-AEEA-γGlu-C18 diacid])QQEFVEWLLAQKPSSGAPPPS-NH2; N-terminus assumed) | Clear | fnd (Fnd = fibrils not detected within experiment time (96 hours) with agitation.) | – | – | – | – | – | –
CCCCCCCCCCCCCCCC(=O)NCCCC[C@H](NC(=O)[C@@H](NC(=O)[C@H](CCCCN)NC(=O)[C@H](CC(=O)O)NC(=O)[C@H](CCSC)NC(=O)[C@H](C)NC(=O)[C@@H](NC(=O)[C@H](CO)NC(=O)[C@H](Cc1ccc(O)cc1)NC(=O)[C@H](CC(=O)O)NC(=O)[C@H](CO)NC(=O)[C@@H](NC(=O)[C@H](Cc1ccccc1)NC(=O)[C@@H](NC(=O)CNC(=O)[C@@H](N)CCC(=O)O)[C@@H](C)O)[C@@H](C)CC)[C@@H](C)CC)[C@@H](C)CC)C(=O)N[C@@H](CCC(N)=O)C(=O)N[C@@H](CCC(N)=O)C(=O)N[C@@H](CC(=O)O)C(=O)N[C@@H](Cc1ccccc1)C(=O)N[C@H](C(=O)N[C@@H](CCC(=O)O)C(=O)N[C@@H](Cc1c[nH]c2ccccc12)C(=O)N[C@@H](CC(C)C)C(=O)N[C@@H](CC(C)C)C(=O)N[C@@H](C)C(=O)N[C@@H](CCC(N)=O)C(=O)N[C@@H](CCCCN)C(=O)N1CCC[C@H]1C(=O)N[C@@H](CO)C(=O)N[C@@H](CO)C(=O)NCC(=O)N[C@@H](C)C(=O)N1CCC[C@H]1C(=O)N1CCC[C@H]1C(=O)N1CCC[C@H]1C(=O)N[C@@H](CO)C(=O)O)C(C)C [AT751] (H-EGTFISDYSIAMDKIK(Palmitoyl)QQDFVEWLLAQKPSSGAPPPS-OH; N-terminus assumed) | Clear | – | – | – | – | – | – | <24 h
